Here are results for five compounds from ChEMBL document CHEMBL1142110, “Tenacibactins A-D, hydroxamate siderophores from a marine-derived bacterium, Tenacibaculum sp. A4K-17” (J Nat Prod, 2007).

The experiment is described as follows: Iron-chelating activity after 4 hrs by CAS assay. The format is functional.
`COC(=O)CCC(=O)NCCCCCN(O)C(=O)CC(C)C` registered an ED50 greater than 1000 µM.
Next, `CC(C)CC(=O)N(O)CCCCCNC(=O)CCC(=O)N(O)CCCCCNC(=O)CCC(=O)O`: 110 µM; `CC(C)CC(=O)N(O)CCCCCNC(=O)CCC(=O)N(O)CCCCCNC(=O)CCC(=O)N(O)CCCCCN`: 115 µM; `CC(=O)N(O)CCCCCNC(=O)CCC(=O)N(O)CCCCCNC(=O)CCC(=O)N(O)CCCCCN`: 120 µM.
Next, `CC(C)CC(=O)N(O)CCCCCNC(=O)CCC(=O)O`: greater than 1000 µM.
